From BindingDB's records for doi:10.1080/14756360400002007 (Crefsip, 2005)

Columns and labels:
Glutamate--tRNA ligase = target: T1, Glutamate--tRNA ligase (Escherichia coli (strain K12), UniProt P04805); assay: Determination of the Inhibition Type and Constant (Ki); conditions: pH 7.2; 37 °C
T1 sequence (P04805 whole entry): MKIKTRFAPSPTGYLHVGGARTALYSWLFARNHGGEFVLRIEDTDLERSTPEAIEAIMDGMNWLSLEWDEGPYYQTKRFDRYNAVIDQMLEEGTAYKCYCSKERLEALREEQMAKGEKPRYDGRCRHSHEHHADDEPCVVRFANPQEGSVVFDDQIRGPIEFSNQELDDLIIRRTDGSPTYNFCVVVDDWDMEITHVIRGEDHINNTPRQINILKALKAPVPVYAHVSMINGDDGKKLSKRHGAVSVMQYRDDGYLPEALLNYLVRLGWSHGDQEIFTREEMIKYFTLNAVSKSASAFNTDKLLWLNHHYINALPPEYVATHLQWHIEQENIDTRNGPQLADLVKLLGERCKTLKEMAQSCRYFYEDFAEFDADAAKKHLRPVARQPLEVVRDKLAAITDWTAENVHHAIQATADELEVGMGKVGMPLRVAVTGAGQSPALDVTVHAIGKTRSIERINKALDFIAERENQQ
Experimental: (§1) The Km and Kappm for the amino acid substrate were first calculated from Lineweaver-Burk plots. The Ki values were calculated from the Kappm vs [I] plot. The Ki values for the inhibitors with respect for the amino acid substrates were determined by measuring the apparent Km for the amino acid in the presence of saturating concentrations of both ATP and tRNA, and of various fixed concentrations of the inhibitor.

[1] = target: T2, Probable glutamate--tRNA ligase, mitochondrial (Mus musculus, UniProt Q9CXJ1); assay: as above; conditions: pH 8; 30 °C
T2 sequence (Q9CXJ1 whole entry): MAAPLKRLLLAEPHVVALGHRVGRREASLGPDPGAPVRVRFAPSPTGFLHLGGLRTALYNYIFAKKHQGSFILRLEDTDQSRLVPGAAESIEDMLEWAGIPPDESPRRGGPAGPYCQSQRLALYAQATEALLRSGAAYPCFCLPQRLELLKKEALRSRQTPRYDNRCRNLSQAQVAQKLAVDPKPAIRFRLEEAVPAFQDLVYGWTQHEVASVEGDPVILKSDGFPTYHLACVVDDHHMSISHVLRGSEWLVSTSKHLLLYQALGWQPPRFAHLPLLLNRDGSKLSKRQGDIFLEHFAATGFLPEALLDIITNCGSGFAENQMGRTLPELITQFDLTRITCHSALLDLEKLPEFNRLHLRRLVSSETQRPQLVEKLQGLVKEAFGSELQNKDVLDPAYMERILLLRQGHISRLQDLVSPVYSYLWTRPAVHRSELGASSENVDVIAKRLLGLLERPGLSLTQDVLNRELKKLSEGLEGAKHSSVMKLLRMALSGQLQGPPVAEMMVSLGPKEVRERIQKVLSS
Experimental: as §1

Ki (Glutamate--tRNA ligase) [µM]	Ki [1] [nM]	Structure (SMILES)
0.0028	70	Nc1ncnc2c1ncn2[C@@H]1O[C@H](COS(=O)(=O)NC(=O)[C@@H](N)CCC(=O)O)[C@@H](O)[C@H]1O [5-O-[N-(L-Glutamyl)-sulfamoyl]adenosine 5]
15	–	Nc1ncnc2c1ncn2[C@@H]1O[C@H](COS(=O)(=O)NC(=O)[C@@H]2CCC(=O)N2)[C@@H](O)[C@H]1O [(5S)-5-{[({[(2R,3S,4R,5R)-5-(6-amino-9H-purin-9-yl)-3,4-dihydroxyoxolan-2-yl]methoxy}sulfonyl)amino]carbonyl}pyrrolidin-2-one]
